# Experiments:
# [1] = tested on: subjects with metabolic syndrome; test: Phase 1b study, pharmacodynamic effects of INV-202 over 28 days (weight, waist, lipids, glucose, endocrine and renal markers); format: in vivo, human
# Method: A phase 1b study to examine the pharmacokinetic and pharmacodynamic effects of INV-202 in subjects with metabolic syndrome as defined by hypertriglyceridemia, abdominal obesity, and impaired glucose tolerance over 28 days was performed.
# This is single center, Phase 1B, randomized, double-blind, placebo-controlled, 28-day repeat dose study.
# The study includes subjects with evidence of metabolic syndrome and glucose intolerance that are randomized 1:1 to receive either INV-202 or placebo. 20 subjects will receive 25 mg of INV-202 and 20 subjects will receive a matching placebo daily for 28 consecutive days, for a total of 40 subjects.
# Subjects will receive a daily oral dose of INV-202 25 mg or a matching placebo for 28 consecutive days.
# Body measurements performed at screening will include height and weight measurements, waist circumference, as well as BMI calculation. Height will only be measured at screening. Weight and waist circumference will also be measured pre-dose on Days 1, 8, 15, and 22, and on Day 29 (+2 days). BMI will be calculated as needed.
# Weight and waist circumference will be measured in triplicate using a standard measuring method. The same scale should be used at all visits for a given subject. The scale should be calibrated according to the manufacturer's recommendation. A medical grade scale for weight should be used.
# (§1) The following will be assessed: sodium, potassium, chloride, glucose, blood urea nitrogen, creatinine, creatinine clearance, direct bilirubin, indirect bilirubin, bilirubin total, ALP, AST, ALT, albumin, lactate dehydrogenase, calcium, lipase, amylase, phosphorus, HbA1C, serum ferritin and total protein.
# In addition, a lipid profile will also be assessed: total cholesterol, HDL, LDL, VLDL and triglycerides. […]
# The following will be assessed only pre-dose on Days 1, 8, 15, and 22, on Day 29 (+2 days), and at the FU Visit/EOS/ET on Day 35 (+2 days): C-peptide, insulin, TSH, and T4.
# The OGTT will be performed at screening, on Day −1, and on Day 29 (+2 days). The OGTT will not need to be performed at screening if there is evidence of HbA1C≥5.7% but ≤6.4% obtained within the last 3 months.
# For the OGTT performed on Day 29 (+2 days), a 75 g glucose load will be administered with blood draws at 30 minutes, 1 hour, 2 hours and 3 hours post-intake.
# The following PD parameters will be evaluated: • 1) 0-3 hour AUC blood glucose level during OGTT • 2) Plasma insulin level—change from baseline to EOS/ET • 3) C-peptide level—change from baseline to EOS/ET • 4) Plasma lipid profile (HDL, LDL, VLDL, triglycerides)—change from baseline to EOS/ET • 5) Adiponectin and leptin—change from baseline to EOS/ET • 6) hs-CRP—change from baseline to EOS/ET • 7) Weight—change from baseline to EOS/ET • 8) Waist circumference—change from baseline to EOT/ET • 9) Appetite and Food Intake questionnaire score—change from baseline to EOT/ET • 10) Urine albumin to creatinine ratio—change from baseline to EOS/ET
# All PD analyses will be descriptive only and no formal statistical analysis is planned. Descriptive statistics will be used to describe change from baseline in values including glucose AUC during OGTT, fasting insulin level and C-peptide levels, lipids (e.g., triglycerides, HDL), adiponectin and other biomarkers. Exploratory analysis in PD versus AEs may be performed to evaluate the Exposure-Response.
# [2] = tested on: subjects with metabolic syndrome; test: Phase 1b study, Columbia Suicidality Severity Rating Scale (C-SSRS); format: in vivo, human; settings: INV-202 group, EOT; 25 mg oral daily for 28 days
# Source text: A suicide risk assessment will be performed using the C-SSRS questionnaire at screening, Day −1 (if more than 21 days have passed since the screening C-SSRS), Day 29 (+2 days) and at the FU Visit/EOS/ET on Day 35 (+2 days).
# This scale will be administered by a member of the medical team, completed on site, and will be on paper. The “Lifetime” C-SSRS questionnaire template will be used at the screening visit and on Day −1 (if applicable), and the “since last visit” C-SSRS questionnaire template will be used on Day 29 (+2 days) and at the FU Visit/EOS/ET. If the Investigator determines that a subject is at risk of suicide or self-harm, he/she must immediately be discontinued from the study and appropriate measures to ensure the subject's safety and obtain mental health evaluation must be implemented. The event should be recorded as either an AE or a SAE, as determined by the Investigator, and reported within 24 hours to the Sponsor.
# [3] = tested on: subjects with metabolic syndrome; test: Phase 1b study, liver safety (liver chemistry); format: in vivo, human
# Source text: as §1
# The hepatic safety of all randomized subjects will be assessed through the use of the following algorithm based on FDA DILI management guidelines (Center for Drug Evaluation and Research (CDER), FDA. Guidance for Industry: Drug-Induced Liver Injury: Premarketing Clinical Evaluation. July 2009).
# An increase of serum ALT or AST>3×ULN should be followed by repeat testing within 48 to 72 hours of all four of the usual serum measures (ALT, AST, ALP, and TBL) to confirm the abnormalities and to determine if they are increasing or decreasing. There also should be inquiry made about symptoms.
# [4] = tested on: subjects with metabolic syndrome; test: Phase 1b study, vital signs; format: in vivo, human; settings: 25 mg oral daily for 28 days
# Source text: BP, HR, RR and OT will be measured at screening and pre-dose on Days 1, 8, 15, and 22, on Day 29 (+2 days), and at the FU Visit/EOS/ET on Day 35 (+2 days). Vital signs will be measured in a sitting position (except for safety reasons and when ECG are planned around the same time). When vital signs measurements coincide with a blood draw, they should preferably be performed before the blood collection, whenever possible.
# DIO mouse model = test: Effect on body weight and metabolic parameters in DIO mouse model; format: in vivo
# Source text: The effect of INV-202 on body weight and food consumption was studied in a DIO mouse model.
# [5] = background statement, cited from earlier work
# [6] = 25 mg oral daily for 28 days, SD in next cell
# [7] = 25 mg oral daily for 28 days, Table 3, SD in next cell
# [8] = 25 mg oral daily for 28 days, endocrine lab data, Table 3
# [9] = following 28-days of repeat dosing
smiles,measurement,setting,value
"CC(=O)N/C(N)=N/C(=N\S(=O)(=O)c1ccc(C(F)(F)F)cc1)N1C[C@H](c2ccccc2)C(c2ccc(Cl)cc2)=N1 [INV-202, N-{[(S)-{[3-(4-chlorophenyl)-4-phenyl-4,5-dihydro-1H-pyrazol-1-yl][4-(trifluoromethyl)benzenesulfonamido]methylidene}amino]methanimidoyl}acetamide]","BMI, change from baseline",[1]; 25 mg oral daily for 28 days,−1.20 kg/m^2
same,"HDL (%), change from baseline",[1]; 25 mg oral daily for 28 days,0.13%
same,"Triglycerides (%), change from baseline",[1]; 25 mg oral daily for 28 days,−7.9%
same,"OGTT (0-3 hour AUC blood glucose), change from baseline","[1]; 25 mg oral daily for 28 days, 75 g glucose load, SD in next cell",2.24 mmol·h/L
same,"C-peptide, change from baseline",[1]; [6],0.036 nmol/L
same,"HDL, change from baseline",[1]; [6],0.0015 mmol/L
same,"HgbA1C, change from baseline",[1]; [6],−0.005%
same,"Insulin, change from baseline",[1]; [6],-5.0 pmol/L
same,"LDL, change from baseline",[1]; [6],-0.50 mmol/L
same,"Total Chol., change from baseline",[1]; [6],-0.56 mmol/L
same,"Triglycerides, change from baseline",[1]; [6],-0.179 mmol/L
same,"VLDL, change from baseline",[1]; [6],-0.08 mmol/L
same,"Waist, change from baseline",[1]; [6],−1.91 cm
same,"Weight (%), change from baseline",[1]; [6],−3.33%
same,"Weight, change from baseline",[1]; [6],-3.50 kg
same,"hs-CRP, change from baseline",[1]; [6],-1.6 mg/L
same,Leptin (%),"[1]; 25 mg oral daily for 28 days, Table 3",−18%
same,Adiponectin,[1]; [7],0.15 mg/L
same,Leptin,[1]; [7],-2.64 µg/L
same,T4,[1]; [8],0.516 pmol/L
same,TSH,[1]; [8],−0.014 mIU/L
same,eGFR (CKD-EPI 2021),"[1]; 25 mg oral daily for 28 days, renal lab data, Table 3",3.23 mL/min/1.73 m2
same,maximum weight loss by percentage,"[1]; after 28 days of treatment, individual patient maximum",6%
same,lowest weight loss by percentage,"[1]; after 28 days of treatment, individual patient minimum",0.1%
same,average weight loss at first clinic visit,"[1]; day 8, statistically significant",1.4%
same,weight change of individual patients,[1]; every single patient on INV-202,lost weight
same,C-SSRS: Non-specific active suicidal thoughts,[2],0
same,C-SSRS: Suicidal behaviour,[2],0
same,C-SSRS: Wished to be dead,[2],0
same,liver chemistry,[3]; all patients throughout the study,within normal limits
same,"changes for bilirubin (total, direct, indirect) or transaminases (AST and ALT)",[3]; throughout the study,no significant changes
same,"Diastolic Blood Pressure (DBP), change from baseline",[4],−0.25 mmHg
same,"Heart Rate, change from baseline",[4],2.3 bpm
same,"Systolic Blood Pressure (SBP), change from baseline",[4],−4.65 mmHg
same,"Temp, change from baseline",[4],−0.045 °C
same,C-peptide levels,DIO mouse model,significant effects in reducing C-peptide levels
same,glucose AUC in an OGTT test,DIO mouse model,decreased glucose AUC
same,insulin levels,DIO mouse model,significant effects in reducing
same,ALT,DIO mouse model; [9],significantly decreased ALT
same,liver triglyceride,DIO mouse model; [9],significantly decreased
same,body weight,DIO mouse model; following 10 days of dosing,dose dependently reduce body weight
Cc1c(C(=O)NN2CCCCC2)nn(-c2ccc(Cl)cc2Cl)c1-c1ccc(Cl)cc1 [Rimonabant],efficacy in metabolic syndrome,[5],effective in treating metabolic syndrome
same,side effects,[5]; resulted in withdrawal from the market,caused neuropsychiatric (i.e. CNS-related) side effects

# Source: patent US20250152557A1, “METHODS FOR TREATING SUBJECTS WITH ABDOMINAL OBESITY […] AND/OR IMPAIRED GLUCOSE” (NOVO NORDISK A/S, priority 2022, published 2025)
